# Source: a melting point compilation (Tetko et al.; mined from patent text by program, amines drawn as free bases though some values may be those of a salt)
row,melting point [°C],Compound
1,> 250,Cn1nc(-c2nc(C#N)c(N)nc2-c2ccccc2)ccc1=O
2,> 260,O=C(O)c1cc2c(-c3ccccc3)n[nH]c2s1
3,79 to 81,COc1ccc(CCNCC(O)c2ccc(OCc3ccccc3)c(OCc3ccccc3)c2)cc1OC (centres undefined)
4,100 to 101,COc1ccc(Nc2ccc(OCc3ccccc3)cc2)c(CO)c1
5,87 to 92,CC(C)n1nc(-c2c(OCC(=O)NC3CC3)nc(N)nc2-c2ccccc2)ccc1=O
6,108 to 110,CCOC(=O)Nc1cccc(C(=O)CBr)c1
7,185,COc1cc2cc3c(nc2cc1OC)CCc1ccc(N)cc1-3
8,155 to 200,ON=C(c1ccncc1)c1ccc(F)cc1F
9,152 to 154,COc1cc2c(cc1F)CCC2=O
10,98 to 100,COc1ccc(CN2C(=O)CN(Cc3cccc(I)c3)S2(=O)=O)cc1
11,135 to 136,COc1ccc(CN2C(=O)C(NC(=O)OCc3ccccc3)C2C2COC(=O)O2)cc1OC (centres undefined)
12,96.5 to 97,CCCCOc1ccc(C=C(C#N)S(C)(=O)=O)cc1
13,131 to 133,C#CCOc1cc(-c2ncnc(C)c2C)c(F)cc1Cl
14,144 to 147,CC(C)N(C)c1nc(Nc2cccc(NS(C)(=O)=O)c2)nc2[nH]cnc12
15,185 to 190,COC(=O)c1ccccc1S(=O)(=O)NC(=O)Nc1nc(OC)cc(OC)n1
16,187 to 188,CCCOc1ccccc1-c1nc(NCC)cc(=O)[nH]1
17,134 to 135,OCc1c[nH]c(Cc2ccccc2)n1
18,84 to 85,O=C1CCCC(=O)N1C(Sc1nnn[nH]1)c1ccccc1 (centres undefined)
19,248 to 253,O=C(Nc1cccc2c(Cn3cnc4ccccc43)ccnc12)c1c(Cl)cccc1Cl
20,234,CCOC(=O)C1=C(C)Nc2nc(N3CCOCC3)nc(N3CCOCC3)c2C1c1ccccc1C (centres undefined)
21,121 to 122,CCOP(=O)(CCc1cn(-c2ccccc2)nc1O)OCC
22,242,Oc1ncnc2c1c(-c1ccco1)nn2Cc1ccccc1
23,175 to 176,CC1CN(c2cccc(Cl)n2)N=C1N (centres undefined)
24,> 300,C[C@H]1CCCN(C(=O)[C@@H]2Cc3ccccc3N2c2ccc3nncn3n2)C1
25,106,CCOC(=O)C1CC1c1cc(=O)c2ccc3ccccc3c2o1 (centres undefined)
26,90 to 96,Cn1c(=O)c2ccccc2n(CCCBr)c1=O
27,202 to 204,CCn1cc(C(=O)O)c(=O)c2cc(F)c(N3CCN(C)C(COc4ccccc4)C3)cc21 (centres undefined)

row,melting point [°C],Compound
1,224 to 225,CCCCc1nc2ccc(C(=O)OC)cc2n1Cc1ccc(-c2ccccc2-c2nnn[nH]2)cc1
2,231 to 232,COC(=O)c1cc2c3c(Cl)cc(Cl)cc3n(C)c2s1
3,159 to 160,CCOC(=O)c1cc(NCc2ccccc2)c(Nc2ccc(C)cc2)c(S(N)(=O)=O)c1
4,102,O=C(Nc1ccc2ccc(Oc3ccccc3)nc2n1)c1ccoc1
5,207 to 211,CC(CO)Nc1c([N+](=O)[O-])cnc2ccccc12 (centres undefined)
6,144 to 145,CC(C)Oc1ccc(-c2nc3c4ccccc4ccc3n2C)cc1
7,128 to 130,NC(=NO)c1cccc2ccccc12
8,112 to 114,COc1cc(OC)c2c(C)c(CCN3CCN(c4ccccc4)CC3)c(=O)oc2c1
9,108 to 110,CC1(C)CN(S(=O)(=O)c2ccccc2F)c2cccc(Br)c2O1
10,140,O=C(c1nc(-c2ccccc2)nc2ccccc12)N1CCCCCC1
11,171 to 173,Nc1nc(Cl)cc(NCC2(CO)CC(=O)C2)n1
12,120 to 121,CCOC(=O)Nc1nc2ccccc2c2c(CC(C)C)n(C)nc12
13,209,Cc1ccc2nc(S)oc2c1
14,227 to 233,O=C(NCCN1CCOCC1)c1ccc2cc(C(=O)O)[nH]c2c1
15,133 to 135,CC(C)(C)c1nc(-c2ncn3c2COc2cc(F)ccc2-3)no1
16,104 to 106,CCn1ncc(OCc2ccc(OCOC)cc2)c(Br)c1=O
17,140,CCOC(=O)C1=C(N)NC(C)=CC1c1cccc(Cl)c1 (centres undefined)
18,73 to 74,CS(=O)c1ccc(-c2oncc2CCCO)cc1 (centres undefined)
19,109 to 111,CCCCC(O)c1ccc2cc(O)ccc2c1 (centres undefined)
20,256 to 258,COCCCNC(=O)c1[nH]c(C)c(-c2nc3ccc(C(=O)c4ccccc4)cc3[nH]2)c1C
21,209 to 210,O=S(=O)(C1=Cc2ccccc2C1)c1ccc(O)cc1
22,210,O=C(Oc1ccccc1OC(=O)c1cc(O)c(O)c(O)c1)c1cc(O)c(O)c(O)c1
23,59 to 61,Cc1ccc(C(=O)CCc2ccc(N)cc2)cc1
24,160,CN(C)C(=S)Oc1ccc(C(=O)c2cccc(C#N)c2)cc1
25,192 to 194,CCCCc1nc2ccccc2n1-c1ccc(O)cc1
26,111 to 112,CC(C)(C)OC(=O)/C(=C/c1ccc2ccccc2c1)C(=O)c1ccccc1O

# Further lines, the molecule ahead of its results:
row,Compound,melting point [°C]
1,Cc1ccc(-c2c(C)c(NC(=O)CC(C)(C)C)c(C)c3c2OCC3c2ccc(C(C)C)cc2)nc1 (centres undefined),228 to 229
2,FC(F)(F)c1nc2nc(Cl)c(Cl)cc2[nH]1,222 to 224
3,O=C1CCN(C(=S)Nc2ccc(Cl)cc2)N1c1ccc(Cl)cc1,121 to 124
4,CC(C)n1cncc1CO,83 to 84
5,COCOc1ccc(-c2ncc3ccc(-c4csc(CN5CCN(C)CC5)c4)nc3n2)cc1,> 268
6,CC(C)NC(=O)N1N=C(c2ccc(N)cc2)c2cc(Cl)ccc2CC1C (centres undefined),100 to 102
7,Oc1ccc(CCCCCCc2ccc(O)cc2)cc1,143 to 144
8,CCCCNC(=O)c1cc(S(=O)(=O)NC23CC4CC(CC(C4)C2)C3)cc2c1OCCO2,147
9,Oc1ncc(-c2ccc(C(F)(F)F)cc2)cn1,271 to 273
10,Cc1cc(-n2ccnc2)c2cccc(OCc3c(Cl)ccc(S(=O)(=O)N4CCC[C@H]4C(=O)NCCCNC(=O)c4ccc(C#N)cc4)c3Cl)c2n1,118
11,CC(C)(F)C1COCc2nc3c(N)nc4cc(O)ccc4c3n21 (centres undefined),219 to 221
12,CCOCOC1(C(=O)CO)C(C)CC2C3CC(C)C4=CC(=O)C=CC4(C)C3C(O)CC21C (centres undefined),100 to 102
13,CCCCN(CCCC)Cc1nc(-c2ncn3c2[C@@H]2CCN2C(=O)c2c(Cl)cccc2-3)no1,120 to 125
14,Nc1nc(O)c2c(n1)NCC(CCc1ccc(C(=O)N[C@@H](CCC(=O)O)C(=O)O)s1)C2 (some centres undefined),204 to 230
15,Nc1ccc(F)c(-c2cccnc2)c1F,112 to 113
16,N#CC1CN1C(=O)NC(=O)c1cccc([N+](=O)[O-])c1 (centres undefined),156 to 158
17,CC1(C)C(C=CC(=O)OCC(F)(F)F)C1C(=O)OC(C#N)c1ccc(F)c(Oc2ccccc2)c1 (centres undefined),56
18,COc1cc2oc(=O)c(CCOS(C)(=O)=O)c(C)c2c(OC)c1OC,114 to 115
19,CC(C)(C)OC(=O)NC1CCCC(NC(=O)c2ccc(-c3[nH]nc4c3C(=O)c3c(NC(=O)NN5CCOCC5)cccc3-4)s2)C1 (centres undefined),> 300
20,NC1=NS(=O)(=O)c2cccc(Cl)c21,218
21,CC(C)(C)CCP1C(O)C(O)P(CCC(C)(C)C)C(O)C1O (centres undefined),186 to 210
22,CC(C)c1cc(C(C)C)c(CCC(=O)O)c(C(C)C)c1,194 to 196
23,COc1cc(OC(=O)c2cccnc2)c2c(=O)c(OC)c(-c3ccc(OC(=O)c4cccnc4)c(OC)c3)oc2c1,212 to 214
24,CC(C)c1csc(COC(=O)NC(C(=O)NC(Cc2ccccc2)CC(O)C(Cc2ccccc2)NC(=O)OCc2cncs2)C(C)C)n1 (centres undefined),62 to 64
25,C=Cn1cc(C(=O)O)c(=O)c2cc(F)c(N3CCN(C)C(C)C3)c(F)c21 (centres undefined),178 to 179
26,O=C1c2c(c(=O)n3nc(-c4ccccc4)cc3n2Cc2ccccc2)CCN1C1CCCCC1,247 to 248

row,Compound,melting point [°C]
1,CSc1ccc(C=CC(=O)c2ccc([N+](=O)[O-])cc2)cc1,160
2,Cc1ccc(-c2nc(C)ccc2N2CCN(c3ccc(C)cc3)CC2)cc1,131 to 139
3,N#Cc1ccc(NC(=O)c2cccc(OCc3ccc(OC(F)(F)F)cc3)c2)cc1,138 to 139
4,Nc1nc(N)c(-c2cc(Cl)cc(Cl)c2Cl)c(CO)n1,101 to 105
5,CCCC(=NOCC)C1=C(O)CC(c2c(C)c(C)c(C)c3cc(C(C)=O)oc23)CC1=O (centres undefined),154
6,C=CCOc1cc(N)c(Cl)cc1C(=O)O,136 to 137
7,COc1ncc(C(=O)O)cc1OC1CCCC1,191 to 192
8,CCc1cc(Br)cc(NC(=O)C=NO)c1,176 to 178
9,O=C(O)COc1cc2c(c(Cl)c1Cl)C(=O)CCC2,250 to 252
10,C#CC1(O)C=CC2C3CCC4=CC(=O)CCC4C3C(Cl)CC21CC (centres undefined),202
11,CCS(=O)(=O)c1cc(C(=O)NCC2CCCN2CCC2CC2)c(OC)cc1N (centres undefined),209
12,CC(=NO)c1csc(S(N)(=O)=O)c1,185 to 188
13,CC(=O)SCC(CC#N)C(=O)O (centres undefined),110 to 112
14,C=C(C)CC(O)C(Br)(Br)Br (centres undefined),64 to 65
15,Cc1ccc(C(=O)NC(Cc2cccc(Br)c2)C(=O)O)cc1 (centres undefined),196 to 197
16,CNS(=O)(=O)CC(=O)C=C(C)N,158 to 162
17,Nc1cc(=O)n(CC2CCCCC2)c(=O)n1CC1CCCCC1,138 to 141
18,CS(=O)(=O)c1cc2[nH]c(=O)c(=O)n(C3CCCCC3)c2cc1[N+](=O)[O-],> 280
19,Nc1cc(Cl)c(N2CCC(N3CCOCC3)CC2)c(Cl)c1,144 to 146
20,Cn1cc(C(=O)NCc2ccc(Cl)cc2)c(=O)c2cc(CN3CCOCC3)cc(C#CCCO)c21,168 to 170
21,NS(=O)(=O)c1cccc(C2(O)CCCCC2)c1,172 to 176
22,O=C(Nc1cc2ncc(CN3CCCC3)cc2cc1F)c1ccc(-c2ccc(F)cc2)cc1F,200 to 202
23,CCOCc1nc2c(N)nc3c(c2n1NCCCNC(=O)NC(C)C)CCCC3,185 to 187
24,CC1CC2C3CCC4=CC(=O)CCC4(C)C3(F)C(O)CC2(C)C1C(=O)CC#N (centres undefined),224
25,CN1CCN(c2cc(Cl)cc3c2c(=O)n(Cc2ccccc2)c(=O)n3Cc2ccccc2)CC1,113 to 116
